Common to all, as to assay type: biochemical
The target in assay [1] is T1, human JAK1 (a.a. 837-1142) (Homo sapiens, UniProt P23458).
T1 construct: human JAK1 (a.a. 837-1142); His tag (N); made in house; host or cells: insect cells (baculovirus)
In words: In vitro JAK kinase assay (HTRF, phosphorylation of a biotinylated peptide), JAK1. The following applies: read-out: JAK1 IC50. A digest of the protocol: (§1)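 Phosphorylation of a biotinylated peptide by the JAK kinase domain, detected by HTRF with Eu-Py20 and SA-APC. ATP was 90 μM for JAK1, 30 μM for JAK2 and 3 μM for JAK3. Reactions ran 1 h at room temperature and were stopped with EDTA, followed by 40 min antibody binding.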
For orientation: Time-resolved FRET reads energy transfer from a long-lived donor to a nearby acceptor.

The target in assay [2] is T2, human JAK2 (a.a. 828-1132) (Homo sapiens, UniProt O60674).
T2 construct: JAK2 (a.a. 828-1132); His tag (N); made in house; host or cells: insect cells (baculovirus)
The assay is described as follows: In vitro JAK kinase assay (HTRF, phosphorylation of a biotinylated peptide), JAK2. The method in brief:
as §1

Assay [3] concerns the target T3, human JAK3 (a.a. 781-1124) (Homo sapiens, UniProt P52333).
T3 construct: JAK3 (a.a. 781-1124); His tag (N); made in house; host or cells: insect cells (baculovirus)
The assay is described as follows: In vitro JAK kinase assay (HTRF, phosphorylation of a biotinylated peptide), JAK3. The method in brief: as §1

Assay [4] deals with TYK2 (Homo sapiens, UniProt P29597). In words: TYK2 kinase inhibition (Table A1).
In assay [5] the target is T4, Recombinant Human Anaplastic Lymphoma Kinase (Homo sapiens, UniProt Q9UM73).
T4 construct: purchased Invitrogen, Carlsbad, Calif
In words: ALK HTRF kinase assay. The method in brief: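 TR-FRET read-out (Eu anti-pTyr antibody + streptavidin-APC) of biotin-peptide phosphorylation by recombinant human enzyme; IC50 by sigmoidal fit with top/bottom baselines and Hill slope.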

The mark [6] stands for this setting: compound at a concentration of 500 nM or 1 mM (not specified), cells shown as percentage.
Setting [7] is: method AA1 (90 μM ATP) or AA2 (1000 μM ATP), not stated per value.
[8] abbreviates: method AA1 (30 μM ATP) or AA2 (1000 μM ATP), not stated per value.
The mark [9] stands for this setting: method AA1 (3 μM ATP) or AA2 (1000 μM ATP), not stated per value.
[10] abbreviates: compound at 500 nM or 1 mM, 90 μM ATP.

SMILES strings stand for the structures. Structures can show the parent of a compound that is named as a salt. Where two headings read alike, the source gives them in different places.

T4 sequence (Q9UM73 19-1620): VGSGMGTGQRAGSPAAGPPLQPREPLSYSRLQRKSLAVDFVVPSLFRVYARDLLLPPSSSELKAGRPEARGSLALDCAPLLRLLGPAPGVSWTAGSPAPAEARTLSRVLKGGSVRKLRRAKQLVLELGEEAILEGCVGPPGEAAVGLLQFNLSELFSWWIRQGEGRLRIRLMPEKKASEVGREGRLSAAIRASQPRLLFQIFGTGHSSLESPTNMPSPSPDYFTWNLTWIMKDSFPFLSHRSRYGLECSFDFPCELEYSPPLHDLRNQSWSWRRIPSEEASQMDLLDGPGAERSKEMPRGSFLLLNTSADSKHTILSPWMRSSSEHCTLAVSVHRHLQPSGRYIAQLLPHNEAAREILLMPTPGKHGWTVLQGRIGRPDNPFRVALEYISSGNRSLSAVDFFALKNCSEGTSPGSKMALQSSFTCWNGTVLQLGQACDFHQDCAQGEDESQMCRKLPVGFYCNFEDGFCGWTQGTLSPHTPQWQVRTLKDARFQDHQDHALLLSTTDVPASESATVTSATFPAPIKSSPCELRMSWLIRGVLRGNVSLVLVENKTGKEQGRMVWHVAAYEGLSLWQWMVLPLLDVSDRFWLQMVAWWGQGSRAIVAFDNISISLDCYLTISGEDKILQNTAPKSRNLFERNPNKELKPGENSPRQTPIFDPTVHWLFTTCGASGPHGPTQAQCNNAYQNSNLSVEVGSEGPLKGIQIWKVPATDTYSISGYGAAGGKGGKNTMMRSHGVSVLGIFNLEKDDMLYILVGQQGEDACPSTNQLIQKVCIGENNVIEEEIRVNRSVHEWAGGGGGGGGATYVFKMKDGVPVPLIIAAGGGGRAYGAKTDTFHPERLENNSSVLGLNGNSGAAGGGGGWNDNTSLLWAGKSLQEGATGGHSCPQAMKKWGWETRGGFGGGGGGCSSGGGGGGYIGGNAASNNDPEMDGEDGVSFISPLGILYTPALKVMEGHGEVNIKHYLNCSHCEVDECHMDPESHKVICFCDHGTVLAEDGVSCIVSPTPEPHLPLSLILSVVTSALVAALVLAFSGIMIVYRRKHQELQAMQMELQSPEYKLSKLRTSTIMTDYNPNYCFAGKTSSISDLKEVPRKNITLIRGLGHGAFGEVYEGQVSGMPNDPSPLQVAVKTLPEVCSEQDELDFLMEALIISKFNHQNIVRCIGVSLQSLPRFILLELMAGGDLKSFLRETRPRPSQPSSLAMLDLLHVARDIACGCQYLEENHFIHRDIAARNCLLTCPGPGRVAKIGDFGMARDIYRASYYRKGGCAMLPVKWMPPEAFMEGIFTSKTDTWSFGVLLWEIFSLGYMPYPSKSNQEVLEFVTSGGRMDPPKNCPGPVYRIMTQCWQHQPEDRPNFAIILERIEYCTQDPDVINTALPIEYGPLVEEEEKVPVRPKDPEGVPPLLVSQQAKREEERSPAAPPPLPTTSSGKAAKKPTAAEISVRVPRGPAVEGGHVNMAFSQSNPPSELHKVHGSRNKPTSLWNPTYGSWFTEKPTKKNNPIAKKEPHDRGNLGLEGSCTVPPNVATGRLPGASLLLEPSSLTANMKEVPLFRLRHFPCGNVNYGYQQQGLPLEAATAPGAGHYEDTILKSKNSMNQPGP
T2 sequence (O60674 828-1132): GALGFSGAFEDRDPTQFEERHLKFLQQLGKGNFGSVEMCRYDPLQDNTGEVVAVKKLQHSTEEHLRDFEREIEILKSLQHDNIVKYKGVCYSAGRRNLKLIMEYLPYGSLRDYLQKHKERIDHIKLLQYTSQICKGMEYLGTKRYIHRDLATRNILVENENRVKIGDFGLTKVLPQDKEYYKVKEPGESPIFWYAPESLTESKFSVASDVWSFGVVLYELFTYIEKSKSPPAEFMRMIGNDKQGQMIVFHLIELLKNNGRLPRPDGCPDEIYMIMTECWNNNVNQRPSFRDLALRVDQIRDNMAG
TYK2, sequence (P29597 whole entry): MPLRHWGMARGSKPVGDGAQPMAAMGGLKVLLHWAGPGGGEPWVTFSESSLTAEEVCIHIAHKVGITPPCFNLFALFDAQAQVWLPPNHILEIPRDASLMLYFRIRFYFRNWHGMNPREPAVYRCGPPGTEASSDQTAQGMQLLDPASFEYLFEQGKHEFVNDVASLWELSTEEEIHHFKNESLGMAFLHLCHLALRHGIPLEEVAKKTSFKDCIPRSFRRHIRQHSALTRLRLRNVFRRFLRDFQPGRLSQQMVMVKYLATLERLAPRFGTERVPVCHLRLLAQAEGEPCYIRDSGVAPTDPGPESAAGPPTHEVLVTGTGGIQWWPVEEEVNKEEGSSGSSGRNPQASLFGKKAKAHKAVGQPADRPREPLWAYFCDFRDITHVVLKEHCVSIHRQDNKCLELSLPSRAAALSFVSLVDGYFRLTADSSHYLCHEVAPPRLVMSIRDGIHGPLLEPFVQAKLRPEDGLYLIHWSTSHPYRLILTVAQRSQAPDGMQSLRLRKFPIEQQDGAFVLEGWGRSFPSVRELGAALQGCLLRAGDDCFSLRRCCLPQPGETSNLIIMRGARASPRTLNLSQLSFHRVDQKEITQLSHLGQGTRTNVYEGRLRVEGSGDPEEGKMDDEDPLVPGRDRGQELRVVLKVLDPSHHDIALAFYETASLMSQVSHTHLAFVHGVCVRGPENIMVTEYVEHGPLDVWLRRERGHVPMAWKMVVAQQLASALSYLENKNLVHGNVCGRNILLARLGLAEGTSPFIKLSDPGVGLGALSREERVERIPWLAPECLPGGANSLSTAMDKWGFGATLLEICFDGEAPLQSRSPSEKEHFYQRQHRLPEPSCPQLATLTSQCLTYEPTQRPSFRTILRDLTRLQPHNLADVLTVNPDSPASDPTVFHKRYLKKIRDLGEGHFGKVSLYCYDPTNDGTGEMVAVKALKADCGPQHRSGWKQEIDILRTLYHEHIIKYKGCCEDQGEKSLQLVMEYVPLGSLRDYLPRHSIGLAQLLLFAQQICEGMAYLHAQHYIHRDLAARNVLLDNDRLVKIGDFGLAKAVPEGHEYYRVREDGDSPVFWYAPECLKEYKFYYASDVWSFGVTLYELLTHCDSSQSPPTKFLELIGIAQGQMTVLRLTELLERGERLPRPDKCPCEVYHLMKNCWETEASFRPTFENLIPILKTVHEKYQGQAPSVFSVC
T3 sequence (P52333 781-1124): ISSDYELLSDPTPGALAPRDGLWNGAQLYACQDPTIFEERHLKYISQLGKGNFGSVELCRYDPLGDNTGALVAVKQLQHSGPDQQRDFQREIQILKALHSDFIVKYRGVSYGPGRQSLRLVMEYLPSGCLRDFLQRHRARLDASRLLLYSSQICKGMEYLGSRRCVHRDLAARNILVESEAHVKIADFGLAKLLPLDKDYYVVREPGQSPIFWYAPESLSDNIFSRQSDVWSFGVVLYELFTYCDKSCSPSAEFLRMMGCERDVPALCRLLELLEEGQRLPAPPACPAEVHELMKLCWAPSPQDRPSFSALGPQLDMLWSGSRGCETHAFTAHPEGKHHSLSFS
T1 sequence (P23458 849-1154): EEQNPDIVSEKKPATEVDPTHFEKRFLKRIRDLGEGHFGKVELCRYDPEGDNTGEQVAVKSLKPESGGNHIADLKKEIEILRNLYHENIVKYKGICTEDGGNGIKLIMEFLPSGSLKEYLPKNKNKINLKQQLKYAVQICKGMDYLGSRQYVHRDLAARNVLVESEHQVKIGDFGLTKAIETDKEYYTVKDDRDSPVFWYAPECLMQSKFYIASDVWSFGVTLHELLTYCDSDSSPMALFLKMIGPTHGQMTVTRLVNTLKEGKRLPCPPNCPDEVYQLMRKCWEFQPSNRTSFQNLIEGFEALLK

The IC50 is the concentration needed to halve the response being measured. Take `CN(Cc1ccc2cc1CCc1cncc(c1)Nc1ncc(Cl)c(n1)N2)CC1CCN(S(=O)(=O)c2ccccc2)CC1` [Example B341, 1-[6-Chloro-2,4,8,18,22-pentaazatetracyclo[14.3.1.1(3,7).1(9,13)]docosa-1(20),3(22),4,6,9(21),10,12,16,18-nonaen-12-yl]-N-methyl-N-{[1-(phenylsulfonyl)piperidin-4-yl]methyl}methanamine tris(trifluoroacetate)]: the IC50 was 13 nM in assay [1] (Table B1), 146 nM in assay [2] (Table B1), > 400 nM in assay [3] (Table B1) and > 400 nM in assay [4] (Table B1). Also, in assay [5] (percentage inhibition of the example compound at a concentration of 500 nM or 1 mM (not specified which)), the “ALK % of inhibition at a concentration of 500 nM or 1 mM” value (“ALK % of inhibition” for short) came out at 27%.

Consider `CCNC(=O)Nc1ccc2cc1CCc1cccc(c1)Nc1ncc(Cl)c(n1)N2` [Example B115, N-[6-Chloro-2,4,8,22-tetraazatetracyclo[14.3.1.1(3,7).1(9,13)]docosa-1(20), 3(22),4,6,9(21),10,12,16,18-nonaen-12-yl]-N′-ethylurea trifluoroacetate], for which the IC50 was determined as 1.4 nM in assay [1] (Table B1), 5.2 nM in assay [2] (Table B1), 29 nM in assay [3] (Table B1) and 8.8 nM in assay [4] (Table B1). Further, the “ALK % of inhibition” value in assay [5] (setting [6]) amounted to 23%.

In the case of `O=C(Nc1ccc2cc1CCc1cccc(c1)Nc1ncc(Cl)c(n1)N2)[C@@H]1CCN(C(=O)c2ccccc2)C1` [Example A52, (3R)-1-Benzoyl-N-[6-chloro-2,4,8,22-tetraazatetracyclo[14.3.1.1(3,7).1(9,13)]docosa-1(20),3(22),4,6,9(21),10,12,16,18-nonaen-12-yl]pyrrolidine-3-carboxamide trifluoroacetate], the IC50 in assay [1] (setting [7]) stood at 2.2 nM; in assay [2] (setting [8]), 4.5 nM; in assay [3] (setting [9]), 7.8 nM; in assay [4] it was 15 nM. The “ALK % of inhibition” value in assay [5] (setting [10]) worked out at 35%.

As for `O=C(CC1CCNCC1)Nc1ccc2cc1CCc1cccc(c1)Nc1ncc(Cl)c(n1)N2` [Example A46, N-[6-Chloro-2,4,8,22-tetraazatetracyclo[14.3.1.1(3,7).1(9,13)]docosa-1(20), 3(22),4,6,9(21),10,12,16,18-nonaen-12-yl]-2-piperidin-4-ylacetamide bis(trifluoroacetate)], the IC50 was found to be 10 nM in assay [1] (setting [7]), 16 nM in assay [2] (setting [8]), 49 nM in assay [3] (setting [9]) and 42 nM in assay [4]. The “ALK % of inhibition” value in assay [5] (setting [10]) came out at 20%.

Regarding `O=S1(=O)Nc2cccc(c2)Nc2nc(ncc2Cl)Nc2cccc1c2` [Example C6, 6-Chloro-15-thia-2,4,8,14,22-pentaazatetracyclo[14.3.1.1(3,7).1(9,13)]docosa-1(20),3(22),4,6,9(21),10,12,16,18-nonaene 15,15-dioxide trifluoroacetate], the half-inhibitory concentration (IC50) in assay [1] is 220 nM; in assay [2] it was 70 nM; in assay [3], 377 nM; in assay [4], 240 nM; in assay [5] it was > 10000 nM.

With `Cc1ccccc1S(=O)(=O)N1CCC(CC(=O)Nc2ccc3cc2CCc2cncc(c2)Nc2ncc(Cl)c(n2)N3)CC1` [Example A225, N-[6-Chloro-2,4,8,18,22-pentaazatetracyclo[14.3.1.1(3,7).1(9,13)]docosa-1(20),3(22),4,6,9(21),10,12,16,18-nonaen-12-yl]-2-{1-[(2-methylphenyl)sulfonyl]piperidin-4-yl}acetamide bis(trifluoroacetate)], the IC50 in assay [1] (setting [7]) was 7.2 nM; in assay [2] (setting [8]), 180 nM; in assay [3] (setting [9]) it was > 400 nM; in assay [4], > 400 nM. Moreover, in assay [5] (setting [10]), the “ALK % of inhibition” value turned out to be 36%.

On to `COc1ccc(S(=O)(=O)N2CCC(CC(=O)Nc3ccc4cc3CCc3cccc(c3)Nc3ncc(Cl)c(n3)N4)CC2)cc1` [Example A207, N-[6-Chloro-2,4,8,22-tetraazatetracyclo[14.3.1.1(3,7).1(9,13)]docosa-1(20),3(22),4,6,9(21),10,12,16,18-nonaen-12-yl]-2-{1-[(4-methoxyphenyl)sulfonyl]piperidin-4-yl}acetamide trifluoroacetate], for which the IC50 in assay [1] (setting [7]) was 85 nM; in assay [2] (setting [8]) it was 199 nM; in assay [3] (setting [9]), > 200 nM; in assay [4], > 200 nM. Besides, the “ALK % of inhibition” value in assay [5] (setting [10]) amounted to 23%.

Turning to `Clc1cnc2nc1Nc1cccc(c1)OCCc1cc(cc(-c3ccccc3)c1)N2` [Example D28, 6-Chloro-19-phenyl-14-oxa-2,4,8,23-tetraazatetracyclo[15.3.1.1(3,7).1(9,13)]tricosa-1(21),3(23),4,6,9(22),10,12,17,19-nonaene trifluoroacetate], the IC50 in assay [1] (Table D1) is 6.2 nM; in assay [2] (Table D1) it was 5.2 nM; in assay [3] (Table D1) it was 53 nM; in assay [4] (Table D1), 25 nM; in assay [5] (Table D1, 90 μM ATP) it was 525 nM.

`O=C(CC1CCN(c2ccccc2)CC1)Nc1ccc2cc1CCc1cncc(c1)Nc1ncc(Cl)c(n1)N2` [Example A219, N-[6-Chloro-2,4,8,18,22-pentaazatetracyclo[14.3.1.1(3,7).1(9,13)]docosa-1(20),3(22),4,6,9(21),10,12,16,18-nonaen-12-yl]-2-(1-phenylpiperidin-4-yl)acetamide tris(trifluoroacetate)]: the IC50 in assay [1] (setting [7]) is 12 nM; in assay [2] (setting [8]), 90 nM; in assay [3] (setting [9]), > 200 nM; in assay [4], 180 nM. Further, in assay [5] (setting [10]), the “ALK % of inhibition” value came out at 20%.

For `O=C(Nc1ccc2cc1CCc1cccc(c1)Nc1ncc(Cl)c(n1)N2)c1cnn2ccccc12` [Example B80, N-[6-Chloro-2,4,8,22-tetraazatetracyclo[14.3.1.1(3,7).1(9,13)]docosa-1(20),3(22),4,6,9(21),10,12,16,18-nonaen-12-yl]pyrazolo[1,5-a]pyridine-3-carboxamide bis(trifluoroacetate)], the IC50 in assay [1] (Table B1) amounted to 0.56 nM; in assay [2] (Table B1) it was 0.53 nM; in assay [3] (Table B1), 1.7 nM; in assay [4] (Table B1) it was 1.2 nM. Besides, in assay [5] (setting [6]), the “ALK % of inhibition” value is 73%.

For `O=C(Nc1cc2cc(c1)OCCSc1cccc(c1)Nc1nc(ncc1Cl)N2)c1ccncc1` [Example D60, N-[6-Chloro-17-oxa-14-thia-2,4,8,24-tetraazatetracyclo[16.3.1.1(3,7).1(9,13)]tetracosa-1(22),3(24),4,6,9(23),10,12,18,20-nonaen-20-yl]isonicotinamide bis(trifluoroacetate)], the IC50 in assay [1] (Table D1) amounted to 2 nM; in assay [2] (Table D1) it was 0.6 nM; in assay [3] (Table D1) it was 5 nM; in assay [4] (Table D1), 1.3 nM; in assay [5] (Table D1, 90 μM ATP), 130 nM.

On to `O=C(Nc1ccc2cc1CCc1cccc(c1)Nc1ncc(Cl)c(n1)N2)C1CCN(C(=O)c2ccco2)CC1` [Example A32, N-[6-Chloro-2,4,8,22-tetraazatetracyclo[14.3.1.1(3,7).1(9,13)]docosa-1(20), 3(22),4,6,9(21),10,12,16,18-nonaen-12-yl]-1-(2-furoyl)piperidine-4-carboxamide trifluoroacetate], for which the IC50 in assay [1] (setting [7]) is 30 nM; in assay [2] (setting [8]) it was 29 nM; in assay [3] (setting [9]), 35 nM; in assay [4] it was 66 nM. In addition, the “ALK % of inhibition” value in assay [5] (setting [10]) turned out to be 30%.

In the case of `Cn1cc(C(=O)N2CC[C@H](NC(=O)Nc3ccc4cc3CCc3cncc(c3)Nc3ncc(Cl)c(n3)N4)C2)cn1` [Example B269, N-[6-Chloro-2,4,8,18,22-pentaazatetracyclo[14.3.1.1(3,7).1(9,13)]docosa-1(20),3(22),4,6,9(21),10,12,16,18-nonaen-12-yl]-N′-{(3S)-1-[(1-methyl-1H-pyrazol-4-yl)carbonyl]pyrrolidin-3-yl}urea bis(trifluoroacetate)], the concentration for half-maximal inhibition (IC50) in assay [1] (Table B1) was 13 nM; in assay [2] (Table B1), 409 nM; in assay [3] (Table B1), > 10000 nM; in assay [4] (Table B1) it was 727 nM. In assay [5] (setting [6]), the “ALK % of inhibition” value was 10%.

As to `O=S(=O)(c1ccc(Cl)cc1)c1ccc(CN2CCN(Cc3cc4cc(c3)Nc3nc(ncc3Cl)Nc3cccc(c3)CC4)CC2)cc1` [Example B195, 6-Chloro-11-[(4-{4-[(4-chlorophenyl)sulfonyl]benzyl}piperazin-1-yl)methyl]-2,4,8,22-tetraazatetracyclo[14.3.1.1(3,7).1(9,13)]docosa-1(20),3(22),4,6,9(21),10,12,16,18-nonaene tris(trifluoroacetate)], the 50% inhibitory concentration (IC50) in assay [1] (Table B1) is > 1000 nM; in assay [2] (Table B1), 91 nM; in assay [3] (Table B1), > 1000 nM; in assay [4] (Table B1), > 1000 nM; in assay [5] (Table B1, cells without percent sign), > 10000 nM.
